Reference: patent publication US4512986A, “Progrestationally active steroids” (priority 1983, dated 1985)

Legend:
[1] = biological target: T1, Cytosol Androgen Receptor of the Castrate Adult Rat Ventral Prostate (Rattus norvegicus, UniProt P15207); test: Relative binding affinity for androgen receptor (competition with 3H-dihydrotestosterone); set-up: species or system rat (Charles River CD)
T1 construct: Several ventral prostate glands pooled for each assay; tissue Charles River (animals, strain CD); host or cells: ventral prostate cytosol of castrated adult male rats
T1 sequence (P15207 1-902): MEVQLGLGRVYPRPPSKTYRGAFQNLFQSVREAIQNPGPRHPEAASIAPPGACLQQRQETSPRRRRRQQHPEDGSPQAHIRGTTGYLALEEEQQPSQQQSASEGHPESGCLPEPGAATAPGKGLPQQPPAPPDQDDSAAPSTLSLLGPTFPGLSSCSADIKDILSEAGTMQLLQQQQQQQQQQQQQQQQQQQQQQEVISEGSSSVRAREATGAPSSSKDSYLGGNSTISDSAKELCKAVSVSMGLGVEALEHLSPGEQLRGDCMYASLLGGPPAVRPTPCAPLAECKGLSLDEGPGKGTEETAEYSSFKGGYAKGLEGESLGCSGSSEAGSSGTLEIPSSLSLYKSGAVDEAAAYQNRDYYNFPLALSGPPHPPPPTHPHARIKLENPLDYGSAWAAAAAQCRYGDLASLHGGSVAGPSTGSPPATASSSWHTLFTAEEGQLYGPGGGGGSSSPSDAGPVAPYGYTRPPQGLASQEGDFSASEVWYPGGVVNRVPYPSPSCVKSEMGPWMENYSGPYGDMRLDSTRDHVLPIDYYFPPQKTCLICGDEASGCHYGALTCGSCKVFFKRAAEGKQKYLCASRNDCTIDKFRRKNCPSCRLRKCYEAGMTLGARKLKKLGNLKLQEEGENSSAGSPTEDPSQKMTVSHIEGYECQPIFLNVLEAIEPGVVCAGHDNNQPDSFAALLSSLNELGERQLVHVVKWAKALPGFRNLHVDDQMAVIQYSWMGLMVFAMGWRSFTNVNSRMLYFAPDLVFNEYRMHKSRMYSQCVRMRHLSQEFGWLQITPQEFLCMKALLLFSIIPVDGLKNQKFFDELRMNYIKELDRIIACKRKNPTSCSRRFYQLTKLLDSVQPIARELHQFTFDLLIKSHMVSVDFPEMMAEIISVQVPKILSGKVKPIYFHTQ
Procedure: The specific conditions, reagents, etc. used to derive the data from Table 2 are as follows:
Animal Species. Adult male rat (Charles River CD).
Pretreatment. Castration 17-24 hour prior to sacrifice.
Tissue. Ventral prostate. Amount of tissue: 0.4 g/rat. Several ventral prostate glands pooled for each assay.
Buffer. 0.05M Tris HCl, 0.05M Trisbase; 1 mM EDTA; 0.15 mM Dithiothreitol.
Homogenization. Three five-second bursts with 30 second cooling periods between bursts using Brinkman Polytron Pt. 10 (3.5 setting).
Temperature. 0°-4° C. all steps.
Centrifugation. 45,000 rpm for 1 hr, 50 Ti rotor, Beckman L8-80 ultracentrifuge.
Radiolabel. 1,2-^3 H-Dihydrotesterone-25,00 cpm/0.1 ml.
Amounts of Addition. 0.1 ml cytosol, 0.1 ml ^3 H-dihydrotestosterone, 0.1 ml test compound, 0.3 ml buffer.
Incubation. 16-18 hours at 0°-4° C.
Concentrations. 1×10^-10 M to 1×10^-5 (7 concentrations).
Method. Charcoal adsorption method used to remove unbound radioactivity. Five-tenths ml dextran-coated charcoal (0.5% Norit A and 0.05% dextran T-70) added to all except total radioactivity tubes (0.5 ml buffer added), tubes vortexed […], allowed to sit 10 min and centrifuged 10 min at 2000 rpm in Beckman TJ-6 centrifuge at 0°-4° C.

cycling rats = test: Blockade of ovulation in rats; type: in vivo, rat (Charles River CD); details: for No. Rats Ovulated (of rats treated) / No. of Oviductal Eggs in Rats that Ovulated (X ± S.D.): single sc
Excerpt: The treated rats were sacrificed on the morning of expected estrus and eggs, if present, were flushed from the oviducts and counted. | *This assay employs cycling Charles River CD rats. For methods refer to | Beattie, C. W. and A. Corbin, Endocrinology 97, 885, 1975. […] | diestrus. Rats were sacrificed 43 to 44 hr later on the morning of | expected estrus. Eggs, if present, were flushed from oviducts and counted | under a stereomicroscope.

Compound: C#C[C@]1(C(C)=O)CC[C@H]2[C@@H]3CCC4=CC(=O)CC[C@]4(C)[C@H]3CC[C@@]21C [17α-Ethynylprogesterone, 17α-ethynylprogesterone]
- RBA ([1]; 16-18 hours at 0°-4° C., 5α-dihydrotestosterone = 100): 0.09%
- androgen receptor binding affinity / androgenicity, in words ([1]; male rat androgenic receptors): extremely low binding affinity for male rat androgenic receptors
- ovulation, in words (cycling rats; 500 μg progesterone, 100, 250 or 500 μg 17α-ethynylprogesterone): ovulation was blocked in most rats
- ovulation, in words (cycling rats; 100 or 250 μg progesterone, 50 μg 17α-ethynylprogesterone): ovulated in a normal fashion
- potency in blocking ovulation relative to (±)-norgestrel, in words (cycling rats; comparison with literature): equipotent with (±)-norgestrel
- potency in blocking ovulation relative to progesterone, in words (cycling rats; sc): about five times as potent as progesterone
- No. Rats Ovulated (of rats treated) (cycling rats; 50 μg/rat): 4/5
- No. of Oviductal Eggs in Rats that Ovulated (X ± S.D.) (cycling rats; 50 μg/rat): 10.5 ± 2.1
- No. Rats Ovulated (of rats treated) (cycling rats; 100 μg/rat): 1/5
- No. of Oviductal Eggs in Rats that Ovulated (X ± S.D.) (cycling rats; 100 μg/rat): 3.0
- No. Rats Ovulated (of rats treated) (cycling rats; 250 μg/rat): 1/5
- No. of Oviductal Eggs in Rats that Ovulated (X ± S.D.) (cycling rats; 250 μg/rat): 6.0
- No. Rats Ovulated (of rats treated) (cycling rats; 500 μg/rat): 0/5
- No. of Oviductal Eggs in Rats that Ovulated (X ± S.D.) (cycling rats; 500 μg/rat): 0.0
